Target: T1, p38 (Homo sapiens, UniProt Q16539)
T1 construct: made in house; host or cells: Trichoplusia ni (Tn-368) High-Five insect cells infected with recombinant baculovirus (virus made in Sf9)
Test: p38 inhibition assay: inhibition of phosphorylation of EGF receptor peptide
Assay type: biochemical
Details: activated p38 (5 nM), EGF receptor peptide 200 μM, ATP 100 μM, 30 min at 30° C., pH 7.6, HPLC
Excerpt: Two splice variants of human p38 kinase, CSBPl and CSBP2, have been identified. Specific oligonucleotide primers were used to amplify the coding region of CSBP2 cDNA using a HeLa cell library (Stratagene) as a template. The polymerase chain reaction product was cloned into the pET-15b vector (Novagen). The baculovirus transfer vector, pVL-(His)6-p38 was constructed by subcloning a XbaI-BamHI fragment of pET15b-(His)6-p38 into the complementary sites in plasmid pVL1392 (Pharmingen).
P38 was activated by combining 0.5 mg/ml p38 with 0.005 mg/ml DD-double mutant MKK6 in Buffer B+10 mM MgCl2, 2 mM ATP, 0.2 mM Na2VO4 for 30 minutes at 20° C. The activation mixture was then loaded onto a 1.0×10 cm MonoQ column (Pharmacia) and eluted with a linear 20 column volume gradient to 1.0 M NaCl in Buffer B. The activated p38 eluted after the ADP and ATP. The activated p38 peak was pooled and dialyzed against buffer B+0.2 mM Na2VO4 to remove the NaCl. The dialyzed protein was adjusted to 1.1M potassium phosphate by addition of a 4.0M stock solution and loaded onto a 1.0×10 cm HIC (Rainin Hydropore) column previously equilibrated in Buffer D (10% glycerol, 20 mM β-glycerophosphate, 2.0 mM DTT)+1.1MK2HPO4. The protein was eluted with a 20 column volume linear gradient to Buffer D+50 mM K2HPO4. The double phosphorylated p38 eluted as the main peak and was pooled for dialysis against Buffer B+0.2 mM Na2VO4. The activated p38 was stored at -70° C.
Inhibition of Phosphorylation of EGF Receptor Peptide
This assay was carried out in the presence of 10 mM MgCl2, 25 mM β-glycerophosphate, 10% glycerol and 100 mM HEPES buffer at pH 7.6. For a typical IC50 determination, a stock solution was prepared containing all of the above components and activated p38 (5 nM). The stock solution was aliquotted into vials. A fixed volume of DMSO or inhibitor in DMSO (final concentration of DMSO in reaction was 5%) was introduced to each vial, mixed and incubated for 15 minutes at room temperature. EGF receptor peptide, […], a phosphoryl acceptor in p38-catalyzed kinase reaction (1), was added to each vial to a final concentration of 200 μM. The kinase reaction was initiated with ATP (100 μM) and the vials were incubated at 30° C. After 30 minutes, the reactions were quenched with equal volume of 10% trifluoroacetic acid (TFA).
The phosphorylated peptide was quantified by HPLC analysis. Separation of phosphorylated peptide from the unphosphorylated peptide was achieved on a reverse phase column (Deltapak, 5 μm, C18 100D, part no. 011795) with a binary gradient of water and acteonitrile, each containing 0.1% TFA. IC50 (concentration of inhibitor yielding 50% inhibition) was determined by plotting the % activity remaining against inhibitor concentration.

T1 sequence (Q16539 whole entry): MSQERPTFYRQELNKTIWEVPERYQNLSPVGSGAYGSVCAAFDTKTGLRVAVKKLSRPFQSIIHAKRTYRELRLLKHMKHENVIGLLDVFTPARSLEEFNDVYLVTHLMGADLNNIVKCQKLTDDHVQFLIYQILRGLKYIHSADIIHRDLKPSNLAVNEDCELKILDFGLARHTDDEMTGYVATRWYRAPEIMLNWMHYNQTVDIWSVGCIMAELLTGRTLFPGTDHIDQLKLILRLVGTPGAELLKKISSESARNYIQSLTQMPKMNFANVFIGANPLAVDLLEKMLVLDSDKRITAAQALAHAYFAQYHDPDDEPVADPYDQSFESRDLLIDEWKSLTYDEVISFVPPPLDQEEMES

Compound | IC50 [nM]
O=C(Nc1cccc(C(=O)O)c1)Nc1ccc(Cl)c(Cl)c1 [Compound 63] | 5800
CCOc1ccccc1NC(=O)Nc1ccc(Cl)c(Cl)c1 [Compound 121] | 2200
COc1cc(OC)c(NC(=O)Nc2ccccc2O)cc1Cl [Compound 28] | 7400
Cc1cc(NC(=O)Nc2ccccc2)c(Cl)cc1F [Compound 15] | 5800
COc1cc(OC)c(NC(=O)Nc2cccc(Oc3ccccc3)c2)cc1Cl [Compound 22] | 1900
COc1cc(Cl)c(C)cc1NC(=O)Nc1ccccc1 [Compound 4] | 100
COc1cc(OC)c(NC(=O)Nc2ccccc2)cc1Cl [Compound 12] | 380
COc1cc(OC)c(NC(=O)Nc2ccc(Oc3ccccc3)cc2)cc1Cl [Compound 20] | 8000
COc1cc(Cl)c(C)cc1NC(=O)Nc1ccccc1 [Compound 61] | 140
COc1cc(OC)c(NC(=O)Nc2ccc(Cl)c(Cl)c2)cc1Cl [Compound 24] | 500
COC(=O)c1ccccc1NC(=O)Nc1ccc(Cl)c(Cl)c1 [Compound 119] | 6300
Cc1cc(C)c(NC(=O)Nc2ccccc2)cc1C [Compound 10] | 4200
O=C(Nc1ccc(Cl)c(Cl)c1)Nc1ccc2c(c1)OCCO2 [Compound 126] | 5600
O=C(Nc1ccccc1)Nc1ccc(Cl)c(Cl)c1 [Compound 62] | 5600
O=C(Nc1ccc(Cl)c(Cl)c1)Nc1cccc2cccnc12 [Compound 131] | 6300
O=C(Nc1ccc(Cl)c(Cl)c1)Nc1ccc(Cl)c(Cl)c1 [Compound 64] | 130

Compound | IC50 [nM]
COc1cc(OC)c(NC(=O)Nc2ccc(F)cc2)cc1Cl [Compound 29] | 1450
O=C(Nc1ccc(Cl)c(Cl)c1)Nc1ccc(Br)cc1C(=O)O [Compound 125] | 8400
COc1cc(OC)c(NC(=O)Nc2ccc(F)c(F)c2)cc1Cl [Compound 33] | 1820
COc1cc(OC)c(NC(=O)Nc2cccc(F)c2)cc1Cl [Compound 35] | 630
O=C(Nc1ccc(Cl)c(Cl)c1)Nc1ccccc1Cl [Compound 122] | 15100
COc1cc(OC)c(NC(=O)Nc2cc(C)ccc2Cl)cc1Cl [Compound 37] | 5100
COc1cc(OC)c(NC(=O)Nc2ccccc2)cc1Cl [Compound 25] | 1000
COc1cc(OC)c(NC(=O)N(CC(=O)O)c2ccccc2)cc1Cl [Compound 34] | 19000
COc1cc([N+](=O)[O-])c(C)cc1NC(=O)Nc1ccccc1 [Compound 13] | 140
COc1cc(C)cc(NC(=O)Nc2ccc(Cl)c(Cl)c2)c1 [Compound 118] | 14700
COc1cc(OC)c(NC(=O)Nc2ccc(Cl)cc2F)cc1Cl [Compound 30] | 1200
COc1cc(OC)c(NC(=O)Nc2ccccc2F)cc1Cl [Compound 31] | 500
Cc1cc(Cl)c([N+](=O)[O-])cc1NC(=O)Nc1ccccc1 [Compound 3] | 370
COc1cc(OC)c(NC(=O)Nc2ccc3c(c2)OCO3)cc1Cl [Compound 40] | 1500
NC(=O)c1ccccc1NC(=O)Nc1ccc(Cl)c(Cl)c1 [Compound 107] | 100
